Test results as given in patent US9932325B2 (Denali Therapeutics Inc., priority 2015, dated 2018).
pIC50: −log10 of the molar value.

The molecules below were run against LRRK2 G2019S enzyme (Homo sapiens (Human), UniProt Q5S007, G2019S) (assay: LRRK2 G2019S TR-FRET biochemical assay (LRRKtide substrate)). Conditions: 134 μM ATP.
Method: Detection Reaction Conditions • 1× TR-FRET dilution buffer • 10 mM EDTA • 2 nM antibody • 23° C. reaction temperature • 10 μL total reaction volume
Compounds were prepared by initially diluting to 1 mM with DMSO. 35 μL of reference compound solution, 35 μL of test compound solution, and 35 μL HPE were successively added to the source plate (384-well assay plate, Labcyte). The plates were centrifuged at 2500 rpm for 1 minute and sealed in foil. […] The assay plate was centrifuged at 2500 rpm for 1 minute, and sealed with foil.
To perform the enzyme reaction, 5 μL of LRRKtide substrate and kinase mixture in assay buffer was added to all wells of the assay plate. The plate was centrifuged to concentrate the mixture at the bottom of the wells. The assay plate was incubated at 23° C. for 20 minutes. Following incubation, 5 μL of 2× ATP in assay buffer was added to each well, and plates were centrifuged to concentrate the mixture at the bottom of the wells. The plate was incubated at 23° C. for 60 minutes.
To perform the detection of the reaction, EDTA completely mixed in TR-FRET dilution buffer was added to antibody reagent. 10 μL of detection reagent was added to all wells of each well of the assay plate and the plate was centrifuged to concentrate the mixture at the bottom of the wells. The plate was then incubated at 23° C. for 60 minutes.

Chain of LRRK2 G2019S enzyme (Q5S007 whole entry G2019S): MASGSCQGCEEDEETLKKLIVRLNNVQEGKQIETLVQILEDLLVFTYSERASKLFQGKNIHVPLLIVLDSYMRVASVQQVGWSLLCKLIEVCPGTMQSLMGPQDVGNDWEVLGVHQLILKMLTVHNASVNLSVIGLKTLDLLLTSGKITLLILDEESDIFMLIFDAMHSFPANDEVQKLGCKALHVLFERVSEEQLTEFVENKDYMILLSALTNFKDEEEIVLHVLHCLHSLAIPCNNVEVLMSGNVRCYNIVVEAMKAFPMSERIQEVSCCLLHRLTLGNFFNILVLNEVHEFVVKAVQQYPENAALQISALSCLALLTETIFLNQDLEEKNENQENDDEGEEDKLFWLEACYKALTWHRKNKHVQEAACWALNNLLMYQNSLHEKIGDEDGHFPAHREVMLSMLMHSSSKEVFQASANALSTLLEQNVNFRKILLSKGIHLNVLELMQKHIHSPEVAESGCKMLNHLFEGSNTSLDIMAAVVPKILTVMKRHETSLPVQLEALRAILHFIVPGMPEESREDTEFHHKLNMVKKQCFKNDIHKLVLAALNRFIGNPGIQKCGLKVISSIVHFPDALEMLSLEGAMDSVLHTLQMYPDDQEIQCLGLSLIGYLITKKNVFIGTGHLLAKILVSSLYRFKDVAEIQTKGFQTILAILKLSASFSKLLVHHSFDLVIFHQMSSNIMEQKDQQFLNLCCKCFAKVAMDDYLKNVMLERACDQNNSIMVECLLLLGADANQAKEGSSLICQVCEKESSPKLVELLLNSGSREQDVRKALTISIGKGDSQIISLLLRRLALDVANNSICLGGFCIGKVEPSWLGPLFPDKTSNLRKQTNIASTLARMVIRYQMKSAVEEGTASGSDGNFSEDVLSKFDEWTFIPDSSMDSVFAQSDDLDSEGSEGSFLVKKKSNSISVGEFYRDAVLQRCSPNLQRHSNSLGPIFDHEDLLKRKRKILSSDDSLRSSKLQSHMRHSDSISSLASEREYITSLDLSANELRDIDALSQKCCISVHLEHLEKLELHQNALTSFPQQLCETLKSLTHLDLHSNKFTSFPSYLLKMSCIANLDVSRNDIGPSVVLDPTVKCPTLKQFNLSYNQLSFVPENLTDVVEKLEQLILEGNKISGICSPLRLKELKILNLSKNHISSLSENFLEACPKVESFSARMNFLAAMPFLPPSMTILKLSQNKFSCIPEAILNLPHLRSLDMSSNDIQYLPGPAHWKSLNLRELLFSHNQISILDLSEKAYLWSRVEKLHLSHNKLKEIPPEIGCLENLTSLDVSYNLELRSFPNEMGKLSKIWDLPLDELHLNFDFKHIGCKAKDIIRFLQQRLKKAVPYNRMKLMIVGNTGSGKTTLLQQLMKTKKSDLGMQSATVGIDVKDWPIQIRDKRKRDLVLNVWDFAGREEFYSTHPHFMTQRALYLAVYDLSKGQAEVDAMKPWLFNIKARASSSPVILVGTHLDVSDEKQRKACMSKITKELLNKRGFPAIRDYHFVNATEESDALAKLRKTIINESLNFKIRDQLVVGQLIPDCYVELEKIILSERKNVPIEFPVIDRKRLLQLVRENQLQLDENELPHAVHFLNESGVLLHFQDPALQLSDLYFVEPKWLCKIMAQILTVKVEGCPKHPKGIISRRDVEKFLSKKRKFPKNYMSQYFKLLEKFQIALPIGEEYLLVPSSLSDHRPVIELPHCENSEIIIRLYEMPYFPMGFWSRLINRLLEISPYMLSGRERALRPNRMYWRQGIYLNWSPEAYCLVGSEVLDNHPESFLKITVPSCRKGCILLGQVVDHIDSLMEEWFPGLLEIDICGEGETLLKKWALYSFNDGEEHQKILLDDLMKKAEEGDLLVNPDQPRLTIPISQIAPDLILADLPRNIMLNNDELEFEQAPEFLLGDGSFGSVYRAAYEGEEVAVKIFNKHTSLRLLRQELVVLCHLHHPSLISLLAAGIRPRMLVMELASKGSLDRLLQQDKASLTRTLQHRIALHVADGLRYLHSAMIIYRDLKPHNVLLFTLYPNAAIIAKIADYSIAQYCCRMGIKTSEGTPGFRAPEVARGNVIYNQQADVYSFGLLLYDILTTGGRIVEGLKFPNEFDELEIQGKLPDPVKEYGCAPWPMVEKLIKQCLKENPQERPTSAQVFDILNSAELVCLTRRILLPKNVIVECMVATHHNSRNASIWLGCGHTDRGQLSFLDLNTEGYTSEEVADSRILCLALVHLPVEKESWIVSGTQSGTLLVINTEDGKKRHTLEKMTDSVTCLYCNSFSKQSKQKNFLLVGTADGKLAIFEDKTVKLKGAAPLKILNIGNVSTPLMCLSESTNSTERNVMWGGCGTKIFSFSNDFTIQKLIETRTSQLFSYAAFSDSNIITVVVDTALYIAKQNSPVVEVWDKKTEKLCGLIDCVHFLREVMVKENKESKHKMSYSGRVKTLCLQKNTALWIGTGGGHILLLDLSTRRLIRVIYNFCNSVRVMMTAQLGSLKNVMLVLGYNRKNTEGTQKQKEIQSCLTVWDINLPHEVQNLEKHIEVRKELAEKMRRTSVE

Row | SMILES | pIC50
1 | CCNc1nc(Nc2cc(C#N)nn2C2CC2)ncc1C(F)(F)F [Compound 133] | < 7.22
2 | CCNc1nc(Nc2cc(C(C)=O)nn2C2CC2)ncc1C(F)(F)F [Compound 135] | < 7.22
3 | CCNc1nc(Nc2cc(C3(C)CCC(=O)N3)nn2C2CC2)ncc1C(F)(F)F (stereo not drawn) [Compound 136] | 7.22 to 7.52
4 | CCNc1nc(Nc2cc(CN3CCCC3=O)nn2C2CC2)ncc1C(F)(F)F [Compound 149] | 7.22 to 7.52
5 | COc1nc(Nc2cc(C(C)(C)n3nccn3)nn2C2CC2)ncc1Br [Compound 157] | 7.22 to 7.52
6 | CCNc1nc(Nc2cc(C3(C)CCn4ccnc43)nn2C2CC2)ncc1C(F)(F)F (stereo not drawn) [Compound 166] | < 7.22
7 | CNc1nc(Nc2cc([C@]34C[C@H]3COC4=O)nn2C2CC2)ncc1C(F)(F)F [Compound 168] | > 7.52
8 | CCNc1nc(Nc2cc(C3(C)CCn4ncnc43)nn2C2CC2)ncc1C(F)(F)F (stereo not drawn) [Compound 171] | < 7.22
9 | CNc1nc(Nc2cc(C3(C)CCn4ccnc43)nn2C2CC2)ncc1C(F)(F)F (stereo not drawn) [Compound 177] | < 7.22
10 | CCNc1nc(Nc2ccnn2[C@H]2C[C@H](O)C2)ncc1C(F)(F)F [Compound 180] | 7.22 to 7.52
11 | CCNc1nc(Nc2ccnn2[C@H]2C[C@H](C#N)C2)ncc1C(F)(F)F [Compound 181, (1R,3R)-3-(5-((4-(ethylamino)-5-(trifluoromethyl)pyrimidin-2-yl)amino)-1H-pyrazol-1-yl)cyclobutanecarbonitrile] | > 7.52
12 | CCNc1nc(Nc2ccnn2[C@H]2C[C@H](n3nccn3)C2)ncc1C(F)(F)F [Compound 182, N2-(1-((1R,3R)-3-(2H-1,2,3-triazol-2-yl)cyclobutyl)-1H-pyrazol-5-yl)-N4-ethyl-5-(trifluoromethyl)pyrimidine-2,4-diamine] | > 7.52
13 | CCNc1nc(Nc2ccnn2[C@H]2C[C@H](n3ccnn3)C2)ncc1C(F)(F)F [Compound 183, N2-(1-((1R,3R)-3-(1H-1,2,3-triazol-1-yl)cyclobutyl)-1H-pyrazol-5-yl)-N4-ethyl-5-(trifluoromethyl)pyrimidine-2,4-diamine] | > 7.52
14 | [2H]C([2H])([2H])n1nc(C2(C)CCCO2)cc1Nc1ncc(C(F)(F)F)c(NCC)n1 (stereo not drawn) [Compound 186] | > 7.52
15 | CCNc1nc(Nc2ccnn2[C@H]2C[C@@H](n3nccn3)C2)ncc1C(F)(F)F [Compound 188] | 7.22 to 7.52
16 | CCNc1nc(Nc2ccnn2[C@H]2C[C@@H](n3ccnn3)C2)ncc1C(F)(F)F [Compound 189] | 7.22 to 7.52
17 | CCNc1nc(Nc2ccnn2[C@H]2C[C@H](F)C2)ncc1C(F)(F)F [Compound 190] | > 7.52
18 | CCNc1nc(Nc2cc(C(C)(C)O)nn2C2CCC2)ncc1C(F)(F)F [Compound 191] | > 7.52
19 | CCNc1nc(Nc2cc(C(C)(C)OC)nn2C2CCC2)ncc1C(F)(F)F [Compound 192] | > 7.52
20 | [2H]C([2H])([2H])n1nc(C2CCOCC2)cc1Nc1ncc(C(F)(F)F)c(NCC)n1 [Compound 193] | 7.22 to 7.52
21 | CCNc1nc(Nc2cn(C3(C)CCCC3=O)nc2C)ncc1C(F)(F)F (stereo not drawn) [Compound 194, 2-[4-[[4-(ethylamino)-5-(trifluoromethyl)pyrimidin-2-yl]amino]-3-methyl-pyrazol-1-yl]-2-methyl-cyclopentanone] | > 7.52
22 | CNc1nc(Nc2cn(C3(C)CCCC3=O)nc2C)ncc1C(F)(F)F (stereo not drawn) [Compound 195] | > 7.52
23 | CCNc1nc(Nc2cn(C3CC3)nc2[C@H]2C[C@H](n3nccn3)C2)ncc1C(F)(F)F [Compound 196] | > 7.52
24 | CCNc1nc(Nc2cn(C3CC3)nc2[C@H]2C[C@@H](n3nccn3)C2)ncc1C(F)(F)F [Compound 197] | > 7.52
25 | CNc1nc(Nc2cn(C3CC3)nc2[C@H]2C[C@H](n3nccn3)C2)ncc1C(F)(F)F [Compound 198] | > 7.52
26 | CNc1nc(Nc2cn(C3CC3)nc2[C@H]2C[C@@H](n3nccn3)C2)ncc1C(F)(F)F [Compound 199] | 7.22 to 7.52

The next lines start with the values.

Row | pIC50 | SMILES
27 | > 7.52 | CCNc1nc(Nc2cc(C(C)(C)O)nn2C2CC2)ncc1C(F)(F)F [Compound 134]
28 | > 7.52 | CCNc1nc(Nc2cc(C(C)n3nccn3)nn2C2CC2)ncc1C(F)(F)F (stereo not drawn) [Compound 137]
29 | > 7.52 | CCNc1nc(Nc2cc(C(C)(C)S(C)(=O)=O)nn2C2CC2)ncc1C(F)(F)F [Compound 139]
30 | > 7.52 | CCNc1nc(Nc2cc(C(C)(C)S(C)(=O)=O)nn2C2CC2)ncc1Br [Compound 140]
31 | > 7.52 | CCNc1nc(Nc2cc(-c3ncoc3C)nn2C2CC2)ncc1C(F)(F)F [Compound 142]
32 | > 7.52 | CCNc1nc(Nc2cc([C@@]3(C)CCOC3=O)nn2C2CC2)ncc1C(F)(F)F [Compound 144, (3R)-3-[1-cyclopropyl-5-[[4-(ethylamino)-5-(trifluoromethyl)pyrimidin-2-yl]amino]pyrazol-3-yl]-3-methyl-tetrahydrofuran-2-one]
33 | > 7.52 | CCNc1nc(Nc2cc(C3(C)COC3)nn2C2CC2)ncc1C(F)(F)F [Compound 145]
34 | > 7.52 | CCNc1nc(Nc2cc(C(C)n3nccn3)nn2C2CC2)ncc1Br (stereo not drawn) [Compound 146]
35 | > 7.52 | CCNc1nc(Nc2cc(C3(C)COC3)nn2C2CC2)ncc1Br [Compound 148]
36 | > 7.52 | CCNc1nc(Nc2cc(C3(C)CCOC3=O)nn2C2CC2)ncc1Br (stereo not drawn) [Compound 151]
37 | > 7.52 | CCNc1nc(Nc2cc([C@H]3C[C@@H]3C#N)nn2C2CC2)ncc1C(F)(F)F [Compound 152]
38 | > 7.52 | CCNc1nc(Nc2cc(N3CCCC3=O)nn2C2CC2)ncc1C(F)(F)F [Compound 153, 1-(1-cyclopropyl-5-((4-(ethylamino)-5-(trifluoromethyl)pyrimidin-2-yl)amino)-1H-pyrazol-3-yl)pyrrolidin-2-one]
39 | > 7.52 | CCNc1nc(Nc2cc(N3CCCS3(=O)=O)nn2C2CC2)ncc1C(F)(F)F [Compound 154]
40 | > 7.52 | CNc1nc(Nc2cc(C3(C)CCOC3=O)nn2C2CC2)ncc1C(F)(F)F (stereo not drawn) [Compound 156]
41 | > 7.52 | CCNc1nc(Nc2cc(N3CCCC3=O)nn2C2CC2)ncc1Br [Compound 158]
42 | > 7.52 | CCNc1nc(Nc2cc(N3CCCS3(=O)=O)nn2C2CC2)ncc1Br [Compound 159]

Row | pIC50 | SMILES
43 | > 7.52 | CCNc1nc(Nc2cc([C@@]34C[C@@H]3COC4=O)nn2C2CC2)ncc1C(F)(F)F [Compound 162, (1R,5S)-1-[1-cyclopropyl-5-[[4-(ethylamino)-5-(trifluoromethyl)pyrimidin-2-yl]amino]pyrazol-3-yl]-3-oxabicyclo[3.1.0]hexan-2-one]
44 | > 7.52 | CNc1nc(Nc2cc([C@@]34C[C@@H]3COC4=O)nn2C2CC2)ncc1C(F)(F)F [Compound 163]
45 | > 7.52 | CCNc1nc(Nc2cc([C@H]3C[C@H]3C#N)nn2C2CC2)ncc1C(F)(F)F [Compound 164]
46 | > 7.52 | CCNc1nc(Nc2cc([C@]34C[C@H]3COC4=O)nn2C2CC2)ncc1C(F)(F)F [Compound 165]
47 | > 7.52 | CCNc1nc(Nc2cc(C3(C)CCn4ccnc43)nn2C2CC2)ncc1C(F)(F)F (stereo not drawn) [Compound 167]
48 | > 7.52 | CCNc1nc(Nc2cc([C@H]3C[C@H]3C(=O)OCC)nn2C2CC2)ncc1C(F)(F)F [Compound 169]
49 | > 7.52 | CCNc1nc(Nc2cc([C@H]3C[C@H]3C(N)=O)nn2C2CC2)ncc1C(F)(F)F [Compound 170]
50 | > 7.52 | [2H]C([2H])([2H])n1nc(C2(C)CCOC2=O)cc1Nc1ncc(C(F)(F)F)c(NCC)n1 (stereo not drawn) [Compound 173]
51 | > 7.52 | [2H]C([2H])([2H])n1nc(C2(C)CCOC2=O)cc1Nc1ncc(C(F)(F)F)c(NCC)n1 (stereo not drawn) [Compound 174]
52 | > 7.52 | [2H]C([2H])([2H])n1nc(C2(C)CCOC2=O)cc1Nc1ncc(C(F)(F)F)c(NC)n1 (stereo not drawn) [Compound 175]
53 | > 7.52 | [2H]C([2H])([2H])n1nc(C2(C)CCOC2=O)cc1Nc1ncc(C(F)(F)F)c(NC)n1 (stereo not drawn) [Compound 176]
54 | > 7.52 | CNc1nc(Nc2cc(C3(C)CCn4ccnc43)nn2C2CC2)ncc1C(F)(F)F (stereo not drawn) [Compound 178]
55 | > 7.52 | CCNc1nc(Nc2ccnn2[C@H]2C[C@@H](O)C2)ncc1C(F)(F)F [Compound 179]
56 | > 7.52 | [2H]C([2H])([2H])n1nc([C@@]23C[C@@H]2COC3=O)cc1Nc1ncc(C(F)(F)F)c(NCC)n1 [Compound 184]
57 | > 7.52 | [2H]C([2H])([2H])n1nc([C@]23C[C@H]2COC3=O)cc1Nc1ncc(C(F)(F)F)c(NCC)n1 [Compound 185]
